Measurements reported in the NIST ThermoML archive (doi:10.1021/je0301500).

Columns and labels:
[1] = xn = mol fraction of the nth substance listed; details: 303.15 K; for mass density / viscosity: 101.33 kPa, Liquid; for mass density: Vibrating tube method; for surface tension liquid-gas: Ring tensiometer; for viscosity: Falling or rolling sphere viscometry
[2] = 303.15 K; for surface tension liquid-gas: Ring tensiometer; for viscosity / mass density: 101.33 kPa, Liquid; for viscosity: Falling or rolling sphere viscometry; for mass density: Vibrating tube method

CO [methanol] + O
[1]
Details	mass density [kg/m3]
x2 = 0.1031	799.74
x2 = 0.2055	818.52
x2 = 0.3014	836.97
x2 = 0.4013	857.06
x2 = 0.4994	877.48

CCCC(=O)OCC [ethyl butanoate] + O
[1]
Details	mass density [kg/m3]	surface tension liquid-gas [mN/m]	viscosity [mPa·s]
x2 = 0.0128	–	–	0.587
x2 = 0.018	–	23.46	–
x2 = 0.019	868.19	–	–
x2 = 0.0319	–	–	0.584
x2 = 0.033	868.46	–	–
x2 = 0.039	868.71	–	0.586
x2 = 0.041	–	23.53	–
x2 = 0.0488	–	–	0.584
x2 = 0.055	–	23.6	–
x2 = 0.056	868.98	–	–
x2 = 0.0588	–	–	0.597

CCCC(=O)OCC [ethyl butanoate]
[2]
Details	mass density [kg/m3]	surface tension liquid-gas [mN/m]	viscosity [mPa·s]
–	868.21	23.4	0.591

CCCC(=O)OCC [ethyl butanoate] + CO
[1]
Details	mass density [kg/m3]	surface tension liquid-gas [mN/m]	viscosity [mPa·s]
x1 = 0.05	–	21.86	–
x1 = 0.101	–	22.03	–
x1 = 0.104	–	–	0.511
x1 = 0.15	–	22.22	–
x1 = 0.1993	820.83	–	–
x1 = 0.2	–	22.36	–
x1 = 0.2036	–	–	0.517
x1 = 0.299	–	22.65	–
x1 = 0.3	832.61	–	–
x1 = 0.3147	–	–	0.522
x1 = 0.4	841.45	22.85	–
x1 = 0.4147	–	–	0.529
x1 = 0.449	845.03	–	–
x1 = 0.474	846.71	–	–
x1 = 0.496	–	22.99	–
x1 = 0.4995	848.3	–	–
x1 = 0.5064	–	–	0.535
x1 = 0.5997	853.94	–	–
x1 = 0.605	–	23.12	–
x1 = 0.6226	–	–	0.543
x1 = 0.65	856.33	–	–
x1 = 0.6976	–	–	0.551
x1 = 0.7	–	23.18	–
x1 = 0.7495	860.43	–	–
x1 = 0.8	–	23.29	–
x1 = 0.8054	–	–	0.565
x1 = 0.883	–	23.35	–
x1 = 0.899	865.48	–	–
x1 = 0.9001	865.54	–	–
x1 = 0.9004	–	–	0.577
x1 = 0.9465	866.88	–	–

CO [methanol]
[2]
Details	mass density [kg/m3]	surface tension liquid-gas [mN/m]	viscosity [mPa·s]
–	781.91	21.68	0.504
